Experimental data reported in patent US9221822B2, “Thiazolopyrimidine modulators as immunosuppressive agents” (Katholieke Universiteit Leuven, K.U.Leuven R&D, priority 2009, dated 2015).

System: Human peripheral blood mononuclear cells (PBMCs) as Responder cells, RPMI 1788 Stimulator cells
Test: Mixed Lymphocyte Reaction (MLR) test
Assay type: cell-based
Conditions: 6 days coculture, 3H-thymidine incorporation
Method: Human peripheral blood mononuclear cells (PBMCs) were isolated from buffy coats, obtained from healthy blood donors by Ficoll (Lymphoprep, Axis-Shield PoC AS, Oslo, Norway) density-gradient centrifugation. The cells at the Ficoll-plasma interface were washed three times and used as “Responder” cells. RPMI 1788 (ATCC, N^o CCL-156) cells were treated with mitomycin C (Kyowa, Nycomed, Brussel, Belgium) and used as “Stimulator” cells. Responder cells (0.12×10^6), Stimulator cells (0.045×10^6) and compounds (in different concentrations) were cocultured for 6 days in RPMI 1640 medium (BioWhittaker, Lonza, Belgium) supplemented with 10% fetal calf serum, 100 U/ml Geneticin (Gibco, LifeTechnologies, UK). Cells were cultured in triplicate in flat-bottomed 96-well microtiter tissue culture plates (TTP, Switzerland). After 5 days, cells were pulsed with 1 μCi of methyl-^3H thymidine (MP Biomedicals, USA), harvested 18 h later on glass filter paper and counted. Proliferation values were expressed as counts per minute (cpm), and converted to % inhibition with respect to a blank MLR test (identical but without added compound). […]

[1] = Homo sapiens, RPMI-1788, lowest concentration giving 50% inhibition of the MLR
[2] = lowest concentration giving 50% inhibition of the MLR

Structure (SMILES)	IC50 [1] [nM]	IC50 [2] [nM]
CSc1nc2c(N3CCN(C(=O)COc4ccc(Cl)cc4)CC3)nc(N)nc2[nH]1 [Example 424, 1-(4-(2-amino-8-(methylthio)-9H-purin-6-yl)piperazin-1-yl)-2-(4-chlorophenoxy)ethanone]	610	
Nc1nc(N2CCN(C(=O)COc3ccc(Cl)cc3)CC2)c2nc(-c3ccc(Cl)cc3)sc2n1 [Example 123, 5-amino-7-[4-(4-chlorophenoxyacetyl)piperazin-1-yl]-2-(4-chlorophenyl)thiazolo[5,4-d]pyrimidine]	260	
Nc1nc(N2CCN(C(=O)COc3ccc(Cl)cc3)CC2)c2nc(C3CC3)oc2n1 [Example 185, 5-amino-2-cyclopropyl-7-[4-(4-chlorophenoxyacetyl)piperazin-1-yl]-oxazolo[5,4-d]pyrimidine]	1760	
Nc1nc(N2CCN(C(=O)COc3cccc([N+](=O)[O-])c3)CC2)c2nc(-c3ccc(F)cc3)oc2n1 [Example 193, 5-amino-2-(4-fluorophenyl)-7-(4-[2-(3-nitrophenoxy)acetyl]-piperazin-1-yl)-oxazolo[5,4-d]pyrimidine]	700	
CCCCCN1CCN(c2nc(N)nc3sc(-c4ccc(F)cc4)nc23)CC1 [Example 37, 2-(4-fluorophenyl)-7-(4-pentylpiperazin-1-yl)thiazolo[5,4-d]pyrimidin-5-amine]	> 10000	
Nc1nc(N2CCN(C(=O)Cc3ccc(Cl)cc3)CC2)c2nc(CCc3ccc(F)cc3)sc2n1 [Example 132, 5-amino-2-[2-(4-fluorophenyl)ethyl]-7-(4-[2-(4-chlorophenyl)acetyl]piperazin-1-yl)-thiazolo[5,4-d]pyrimidine]	440	
CC(=O)N1CCN(c2nc(N)nc3oc(-c4ccc(F)cc4)nc23)CC1 [Example 191, 5-amino-2-(4-fluorophenyl)-7-(4-acetylpiperazin-1-yl)-oxazolo[5,4-d]pyrimidine]	> 10000	
Cc1cccc(NC(=O)N2CCN(c3nc(N)nc4sc(CCc5cccs5)nc34)CC2)c1 [Example 157, 5-amino-2-(2-thiophen-2-ylethyl)-7-(4-m-tolylcarbamoylpiperazin-1-yl)thiazolo[5,4-d]pyrimidine]	630	
Nc1nc(SCc2ccccc2)c2nc(-c3ccc(F)cc3)sc2n1 [Example 28, 7-(benzylthio)-2-(4-fluorophenyl)thiazolo[5,4-d]pyrimidin-5-amine]	> 10000	
CCC(c1ccc(F)cc1)c1nc2c(N3CCN(C(=O)COc4ccc(Cl)cc4)CC3)nc(N)nc2s1 (stereo not drawn) [Example 150, 5-amino-2-[1-(4-fluorophenyl)propyl]-7-(4-[2-(4-chlorophenoxy)acetyl]piperazin-1-yl)thiazolo[5,4-d]pyrimidine]	5390	
Nc1nc(N2CCN(C(=O)c3cccnc3)CC2)c2cc(-c3ccc(F)cc3)sc2n1 [Example 346, (4-(2-amino-6-(4-fluorophenyl)thieno[2,3-d]pyrimidin-4-yl)piperazin-1-yl)(pyridin-3-yl)methanone]	> 10000	
COc1cccc(CCc2nc3c(N4CCN(C(=O)COc5ccc(Cl)cc5)CC4)nc(N)nc3s2)c1 [Example 255, 1-(4-(5-amino-2-(3-methoxyphenethyl)thiazolo[5,4-d]pyrimidin-7-yl)piperazin-1-yl)-2-(4-chlorophenoxy)ethanone]	710	
Nc1nc(N2CCN(C(=O)CCc3ccccc3)CC2)c2nc(CCc3ccc(F)cc3)sc2n1 [Example 136, 5-amino-2-[2-(4-fluorophenyl)ethyl]-7-[4-(3-phenylpropionyl)piperazin-1-yl]-thiazolo[5,4-d]pyrimidine]	> 10000	
Nc1nc(N2CCN(C(=O)COc3ccc(F)cc3)CC2)c2nc(-c3ccc(F)cc3)sc2n1 [Example 233, 1-(4-(5-amino-2-(4-fluorophenyl)thiazolo[5,4-d]pyrimidin-7-yl)piperazin-1-yl)-2-(4-fluorophenoxy)ethanone]	74	
COc1ccc(CNC(=O)N2CCN(c3nc(N)nc4sc(-c5cccnc5)nc34)CC2)cc1 [Example 278, 4-(5-amino-2-(pyridin-3-yl)thiazolo[5,4-d]pyrimidin-7-yl)-N-(4-methoxybenzyl)piperazine-1-carboxamide]	80	
Nc1nc(N2CCN(C(=O)COc3ccc(Cl)cc3)CC2)c2nc(CCOc3ccc(F)cc3)sc2n1 [Example 48, 1-(4-(5-amino-2-(2-(4-fluorophenoxy)ethyl)thiazolo[5,4-d]pyrimidin-7-yl)piperazin-1-yl)-2-(4-chlorophenoxy)ethanone]	3540	
Nc1nc(N2CCN(C(=O)COc3ccccc3)CC2)c2nc(-c3ccc(F)cc3)sc2n1 [Example 130, 5-amino-2-(4-fluorophenyl)-7-(4-(2-phenoxyacetyl)-piperazin-1-yl)-thiazolo[5,4-d]pyrimidine]	350	

Structure (SMILES)	IC50 [1] [nM]	IC50 [2] [nM]
COCCOc1nc(N)nc2sc(-c3ccc(F)cc3)nc12 [Example 29, 2-(4-fluorophenyl)-7-(2-methoxyethoxy)-thiazolo[5,4-d]pyrimidin-5-amine]	> 10000	
Nc1nc(N2CCN(S(=O)(=O)Cc3ccccc3)CC2)c2cc(-c3ccc(F)cc3)sc2n1 [Example 344, 4-(4-(benzylsulfonyl)piperazin-1-yl)-6-(4-fluorophenyl)thieno[2,3-d]pyrimidin-2-amine]	> 10000	
COc1cccc(-c2nc3c(N4CCN(C(=O)COc5ccc(Cl)cc5)CC4)nc(N)nc3s2)c1 [Example 124, 5-amino-7-[4-(4-chlorophenoxyacetyl)piperazin-1-yl]-2-(3-methoxyphenyl)thiazolo[5,4-d]pyrimidine]	120	
CC(c1ccc(F)cc1)c1nc2c(N3CCN(C(=O)COc4ccc(Cl)cc4)CC3)nc(N)nc2s1 (stereo not drawn) [Example 66, 1-(4-(5-amino-2-(1-(4-fluorophenyl)ethyl)thiazolo[5,4-d]pyrimidin-7-yl)piperazin-1-yl)-2-(4-chlorophenoxy)ethanone]	4380	
COc1ccc(OCC(=O)N2CCN(c3nc(N)nc4sc(-c5ccc(Cl)cc5)nc34)CC2)cc1 [Example 270, 1-(4-(5-amino-2-(4-chlorophenyl)thiazolo[5,4-d]pyrimidin-7-yl)piperazin-1-yl)-2-(4-methoxyphenoxy)ethanone]		150
COc1ccc(OCC(=O)N2CCN(c3nc(N)nc4sc(CCCc5ccc(F)cc5)nc34)CC2)cc1 [Example 291, 1-(4-(5-amino-2-(3-(4-fluorophenyl)propyl)thiazolo[5,4-d]pyrimidin-7-yl)piperazin-1-yl)-2-(4-methoxyphenoxy)ethanone]	1110	
Nc1nc(N2CCN(C(=O)COc3ccc(O)cc3)CC2)c2nc(CCc3ccc(F)cc3)sc2n1 [Example 224, 1-(4-(5-amino-2-(4-fluorophenethyl)thiazolo[5,4-d]pyrimidin-7-yl)piperazin-1-yl)-2-(4-hydroxyphenoxy)ethanone]	1100	
Nc1nc(N2CCN(C(=O)c3ccc(Cl)cc3)CC2)c2nc(CCc3ccc(F)cc3)oc2n1 [Example 195, 5-amino-2-[2-(4-fluorophenyl)ethyl]-7-(4-[4-chlorobenzoyl]piperazin-1-yl)-oxazolo[5,4-d]pyrimidine]	> 10000	
Nc1nc(N2CCN(S(=O)(=O)Cc3ccccc3)CC2)c2nc(CCc3ccc(F)cc3)sc2n1 [Example 137, 5-amino-2-[2-(4-fluorophenyl)ethyl]-7-[4-phenylmethanesulfonylpiperazin-1-yl]-thiazolo[5,4-d]pyrimidine]	6680	
Nc1nc(N2CCN(c3nccs3)CC2)c2nc(-c3ccc(F)cc3)sc2n1 [Example 36, 2-(4-fluorophenyl)-7-(4-(thiazol-2-yl)piperazin-1-yl)thiazolo[5,4-d]pyrimidin-5-amine]	> 10000	
NC(=O)c1nc(N2CCN(C(=O)COc3ccc(Cl)cc3)CC2)c2cc(-c3ccc(F)cc3)sc2n1 [Example 355, 4-(4-(2-(4-chlorophenoxy)acetyl)piperazin-1-yl)-6-(4-fluorophenyl)thieno[2,3-d]pyrimidine-2-carboxamide]	> 10000	
Nc1nc(N2CC[C@@H](NC(=O)COc3ccc(Cl)cc3)C2)c2nc(CCc3ccc(F)cc3)sc2n1 [Example 143, 5-amino-2-[2-(4-fluorophenyl)ethyl]-7-(3-(R)-[2-(4-chlorophenoxy)-acetylamino]pyrrolidin-1-yl)-thiazolo[5,4-d]pyrimidine]	> 10000	
Nc1nc(NC2CCCN(C(=O)OCc3ccccc3)C2)c2nc(CCc3ccc(F)cc3)sc2n1 (stereo not drawn) [Example 145, 5-amino-2-[2-(4-fluorophenyl)ethyl]-7-(1-benzyloxycarbonylpiperidin-3-ylamino)-thiazolo[5,4-d]pyrimidine]	4350	
Nc1nc(N2CC[C@@H](NC(=O)c3ccc(Cl)cc3)C2)c2cc(-c3ccc(F)cc3)sc2n1 [Example 341, (R)—N-(1-(2-amino-6-(4-fluorophenyl)thieno[2,3-d]pyrimidin-4-yl)pyrrolidin-3-yl)-4-chlorobenzamide]	7230	
Nc1nc(N2CCN(c3ccncc3)CC2)c2nc(-c3ccc(F)cc3)[nH]c2n1 [Example 419]		> 10000
Nc1nc(N2CCN(C(=O)CCc3ccc(Br)cc3)CC2)c2nc(CCc3ccc(F)cc3)sc2n1 [Example 223, 1-(4-(5-amino-2-(4-fluorophenethyl)thiazolo[5,4-d]pyrimidin-7-yl)piperazin-1-yl)-3-(4-bromophenyl)propan-1-one]	> 10000	
